Values of other authors as cited in US4256727A, “Synthesis and use of diagnostic radio-pharmaceuticals comprising radioactive isotopes of bromine with dyes” (The University of Kentucky Research Foundation, priority 1978, dated 1981).

Tests used:
[1] = rate at which the drug is cleared from the blood after injection
[2] = formulated with propylene glycol and stored at refrigerated temperatures

Row | SMILES | half life of clearance from the blood [1] [min] | stability of the product [2]
1 | O=C1OC2(c3cc(I)c(O)c(I)c3Oc3c2cc(I)c(O)c3I)c2c(Cl)c(Cl)c(Cl)c(Cl)c21 [Rose Bengal] | 8 to 10 | stable
2 | O=S1(=O)OC(c2cc(Br)c(O)c(Br)c2)(c2cc(Br)c(O)c(Br)c2)c2ccccc21 [bromphenol blue, 4,4'-(3H-2,1,-benzoxathiol-3-ylidene)bis[2,6-dibromophenol]S,S,-dioxide] | 1.5 | –
